Laboratory results reported in ChEMBL document CHEMBL1152929, “Dapholdhamines A-D, alkaloids from Daphniphyllum oldhami” (J Nat Prod, 2009).
Activity calls are given as the source filed them.

What was measured:
Type in all cases: functional, cell-based
HCT-116 = experiment: Cytotoxicity against human HCT116 cells
HT-29 = experiment: Cytotoxicity against human HT-29 cells
SW480 = experiment: Cytotoxicity against human SW480 cells
HL-60 = experiment: Cytotoxicity against human HL60 cells
K562 = experiment: Cytotoxicity against human K562 cells
KB = experiment: Cytotoxicity against human KB cells

Measured: Activity

COC(=O)c1c2ccoc3c-2c2c1C(=O)[C@]1(O)CC4(CC(C)=O)N(C[C@@H](CC3)[C@@]24C)C[C@H]1C
inactive: all assays above

C[C@@H]1CN2C3[C@@H]4CC[C@@]35CCC[C@H]5[C@@]3(CCC(=O)O)[C@H]2[C@]1(O)CC[C@@]43C
inactive: all assays above

COC(=O)c1c2ccoc3c-2c2c1C(=O)[C@]1(O)C[C@@]4(O)N(C[C@@H](CC3)[C@@]24C)C[C@H]1C
inactive: all assays above

CC(C)[C@H]1CC[C@@]2(C)[C@H]3C[C@@H]4[C@H]5CCC[C@@]4(O)[C@@]2(CCC(=O)O)[C@@H]1N5C3
inactive: all assays above
